According to patent US8785459B2, “Quinazoline compounds as kinase inhibitors” (Development Center for Biotechnology, priority 2011, dated 2014):

Tests used:
[1] = target: Cdk1 kinase (Homo sapiens (Human), UniProt P06493); assay: CDK1 kinase assay; format: biochemical
Experimental: Inhibition of Cdk1 kinase activity by compounds disclosed herein was quantified by measuring the amount of [^33P] incorporated into the substrate in the presence of a test compound. Briefly, a reaction mixture of 25 μL final volume containing 5 ng of Cdk1 kinase (Cdk1 kinase domain alone, Millipore), 3 μg of the substrate [Histone H1], kinase reaction buffer (10 mM MOPS pH 7.0, 0.3 mM EDTA, 0.5% glycerol, 0.001% Brij-35, 0.1 mg/ml BSA, 10 μM ATP, 0.1 μCi per well [^33P]-γ-ATP (2,500-3,000 Ci/mmol)), and a test compound (100 nM, diluted with 4% DMSO) or DMSO (as the control) was incubated at 30° C. for 30 minutes. The reaction was stopped by adding 5 μL of 3% phosphoric acid solution. The resultant reaction solution was then harvested onto a filter plate (UniFilter-96 GF/B, PerkinElmer), washed 20 times for 5 min with d.d. H2O, and followed by the addition of 30 μL of MicroScint™-20 Cocktail (PerkinElmer). The radioactivity retained on the filter membrane was measured by TopCount™ scintillation detector (PerkinElmer). The results were analyzed by using linear regression software (GraphPad Prism™ 4; GraphPad Software Inc.).

[2] = test system: A375 tumor cells; assay: In vivo anti-cancer activity, subcutaneous A375 tumor in NOD/SCID mice; conditions: A375 xenograft, 50 mg/kg i.p. qd x 28
Experimental: (§1) In Vivo Anti-Cancer Activities
(§2) A375 (1×10^6 cell/mouse) tumor cells were subcutaneously injected into the right flank of 5 week old male NOD/SCID mice (BioLASCO, Taiwan). Tumor volume was measured with a digital caliper once tumor was palpable (within 10 to 15 days after implantation). Compound treatment was started after 1-3 weeks when the tumors had reached an average volume of ˜50 to 100 mm^3. Mice were divided into 5 groups as listed in Table 6 below and were given intraperitoneal injections with the test compound at 50 mg/kg, or vehicle control (DMSO:Cremophor:PBS (pH 7.4)=[…]) one time every day. The test compound, 58, was formulated in a solution of 5% DMSO, 10% Cremophor, and 85% PBS. The positive control, PLX4032, was dissolved in 100% PBS. Body weights of the mice were measured every two to three days and the tumor sizes in different groups of mice were measured by digital caliper every two to three days.

[3] = Body weight of A375 tumor-bearing NOD/SCID mice under treatment; format: in vivo; conditions: A375 xenograft, 50 mg/kg i.p. qd x 28
Experimental: as §1, §2

Chain of Cdk1 kinase (P06493 4-287): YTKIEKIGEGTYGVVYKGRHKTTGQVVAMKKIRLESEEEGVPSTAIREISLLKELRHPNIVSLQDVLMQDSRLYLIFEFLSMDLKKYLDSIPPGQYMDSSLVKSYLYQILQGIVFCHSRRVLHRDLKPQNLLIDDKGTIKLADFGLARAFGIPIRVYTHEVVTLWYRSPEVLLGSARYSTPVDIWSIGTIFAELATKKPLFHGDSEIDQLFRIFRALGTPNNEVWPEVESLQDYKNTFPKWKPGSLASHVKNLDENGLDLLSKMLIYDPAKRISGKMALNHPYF
Chain of Cdk1 kinase (P14635 whole entry partner, the tested form may be a part): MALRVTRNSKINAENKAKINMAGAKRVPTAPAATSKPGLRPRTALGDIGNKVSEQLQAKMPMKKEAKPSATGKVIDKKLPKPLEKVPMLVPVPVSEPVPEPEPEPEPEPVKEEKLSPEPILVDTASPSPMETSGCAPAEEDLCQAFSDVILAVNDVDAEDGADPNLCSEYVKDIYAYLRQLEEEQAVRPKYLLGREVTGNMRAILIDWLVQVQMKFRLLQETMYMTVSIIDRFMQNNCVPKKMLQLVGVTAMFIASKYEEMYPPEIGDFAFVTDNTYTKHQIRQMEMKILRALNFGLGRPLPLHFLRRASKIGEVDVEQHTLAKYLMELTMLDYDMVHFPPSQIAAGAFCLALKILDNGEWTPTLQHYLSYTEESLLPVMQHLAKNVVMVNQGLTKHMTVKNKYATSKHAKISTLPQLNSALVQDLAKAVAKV

SMILES | inhibition at 1 µM [1] [%] | tumor growth in vivo [2] | weight loss [3]
COc1cc(-c2ccc3ncnc(Nc4cc(O)ccc4F)c3c2)ccc1O [Compound 58, 4-(4-(2-fluoro-5-hydroxyphenylamino)quinazolin-6-yl)-2-methoxyphenol] | 78 | inhibited tumor growth in vivo | without inducing significant weight loss
COc1cc(-c2ccc3ncnc(Nc4cccc(O)c4)c3c2)ccc1O [Compound 8, 4-(4-(3-hydroxyphenylamino)quinazolin-6-yl)-2-methoxyphenol] | 88 | – | –
